Values joined by “and” are separate entries in the source; they are usually repeats but may differ in a detail not shown here. Equal values may be shown once. Toxic doses and inconclusive results are not listed. Cut-off read from the data, not from the text of the source: active = T/C of 150% or more; inactive = T/C below 125%.
Tested on: L1210 leukemia ip in BDF1 mice, survival T/C
Assay: NCI In Vivo Anticancer Drug Screen. Data for tumor model L1210 Leukemia (intraperitoneal) in B6D2F1 (BDF1) mice
Conditions: endpoint: mean survival time, higher = longer survival
Method in brief: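 Tumor cells were implanted, animals were treated, and survival was followed. The result divides the treated measurement by the vehicle-control measurement.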

[1] = dose: 50.0 mg/kg/injection, schedule: Q01DX009 (ip), vehicle: saline
[2] = dose: 100.0 mg/kg/injection, schedule: Q01DX009 (ip), vehicle: saline
[3] = dose: 200.0 mg/kg/injection, schedule: Q01DX009 (ip), vehicle: saline
[4] = dose: 75.0 mg/kg/injection, schedule: Q01DX001 (ip), vehicle: other
[5] = dose: 150.0 mg/kg/injection, schedule: Q01DX001 (ip), vehicle: other
[6] = dose: 100.0 mg/kg/injection, schedule: Q04DX003 (ip), vehicle: saline with Tween-80
[7] = dose: 200.0 mg/kg/injection, schedule: Q04DX003 (ip), vehicle: saline with Tween-80
[8] = dose: 400.0 mg/kg/injection, schedule: Q04DX003 (ip), vehicle: saline with Tween-80
[9] = dose: 100.0 mg/kg/injection, schedule: Q01DX009 (ip), vehicle: Klucel (hydroxypropylcellulose) (HPC)
[10] = dose: 200.0 mg/kg/injection, schedule: Q01DX009 (ip), vehicle: Klucel (hydroxypropylcellulose) (HPC)
[11] = dose: 400.0 mg/kg/injection, schedule: Q01DX009 (ip), vehicle: Klucel (hydroxypropylcellulose) (HPC)
[12] = dose: 100.0 mg/kg/injection, schedule: Q01DX001 (ip), vehicle: saline
[13] = dose: 200.0 mg/kg/injection, schedule: Q01DX001 (ip), vehicle: saline
[14] = dose: 400.0 mg/kg/injection, schedule: Q01DX001 (ip), vehicle: saline
[15] = dose: 100.0 mg/kg/injection, schedule: Q04DX003 (ip), vehicle: Klucel (hydroxypropylcellulose) (HPC)
[16] = dose: 200.0 mg/kg/injection, schedule: Q04DX003 (ip), vehicle: Klucel (hydroxypropylcellulose) (HPC)
[17] = dose: 400.0 mg/kg/injection, schedule: Q04DX003 (ip), vehicle: Klucel (hydroxypropylcellulose) (HPC)

Measured: T/C

Cc1cc(C)c(Sc2cc(C)sc2C)c(C)c1
inactive: dose: 100.0 mg/kg/injection, schedule: Q01DX001 (ip), vehicle: acetone 91 % of control | dose: 100.0 mg/kg/injection, schedule: Q04DX003 (ip), vehicle: acetone 91 % of control | dose: 200.0 mg/kg/injection, schedule: Q01DX001 (ip), vehicle: acetone 91 % of control | dose: 200.0 mg/kg/injection, schedule: Q04DX003 (ip), vehicle: acetone 91 % of control | dose: 400.0 mg/kg/injection, schedule: Q01DX001 (ip), vehicle: acetone 91 % of control | dose: 400.0 mg/kg/injection, schedule: Q04DX003 (ip), vehicle: acetone 100 % of control

CC(=O)OC12C=C(C)C(C3C(=O)OC(=O)C31)C(C)(C)C2 (stereo not given)
inactive: [1] 97 % of control | [2] 92 % of control | [3] 102 % of control

O=c1c(N=Nc2ccc(Cl)cc2)c(O)n(-c2ccccc2)c(=S)n1-c1ccccc1
inactive: dose: 37.5 mg/kg/injection, schedule: Q01DX001 (ip), vehicle: other 94 % of control | [4] 107 % of control | [5] 96 % of control

COc1ccc(OC(=O)Nc2ccc(OC)cc2Cl)cc1
inactive: dose: 100.0 mg/kg/injection, schedule: Q04DX002 (ip), vehicle: Klucel (hydroxypropylcellulose) (HPC) 96 % of control | dose: 200.0 mg/kg/injection, schedule: Q04DX002 (ip), vehicle: Klucel (hydroxypropylcellulose) (HPC) 107 % of control | dose: 400.0 mg/kg/injection, schedule: Q04DX002 (ip), vehicle: Klucel (hydroxypropylcellulose) (HPC) 100 % of control

NCCCOc1ccc([N+](=O)[O-])cc1Cl
inactive: [1] 106 % of control | dose: 75.0 mg/kg/injection, schedule: Q01DX001 (ip), vehicle: saline 98 % of control | [2] 110 % of control | dose: 100.0 mg/kg/injection, schedule: Q04DX003 (ip), vehicle: saline 111 % of control | dose: 150.0 mg/kg/injection, schedule: Q01DX001 (ip), vehicle: saline 98 % of control | [3] 101 % of control | dose: 200.0 mg/kg/injection, schedule: Q04DX003 (ip), vehicle: saline 101 % of control

CN(C)CCn1c2ccccc2c2ccccc21
inactive: [6] 92 % of control | [7] 92 % of control | [8] 95 % of control

C=C(C)C1Cc2c(ccc3c(=O)c4c(oc23)C(O)Oc2cc(OC)c(OC)cc2-4)O1 (stereo not given)
inactive: [9] 93 % of control | [10] 95 % of control | [11] 97 % of control

O=C(NC1CCCCC1)c1csnn1
inactive: [4] 89 % of control | [5] 97 % of control

Cc1cc(C)nc(SCC(=O)O)n1
inactive: dose: 50.0 mg/kg/injection, schedule: Q01DX001 (ip), vehicle: carboxymethylcellulose (CMC) 89 % of control | dose: 100.0 mg/kg/injection, schedule: Q01DX001 (ip), vehicle: carboxymethylcellulose (CMC) 105 % of control | dose: 200.0 mg/kg/injection, schedule: Q01DX001 (ip), vehicle: carboxymethylcellulose (CMC) 96 % of control | dose: 400.0 mg/kg/injection, schedule: Q01DX001 (ip), vehicle: carboxymethylcellulose (CMC) 105 % of control

CCOC(=O)C1CC2CC(C1=O)C2(C)C (stereo not given)
inactive: [6] 96 % of control | [7] 101 % of control | [8] 93 % of control

CCCCCCCCN1C(=O)c2ccccc2S1(=O)=O
inactive: dose: 222.0 mg/kg/injection, schedule: Q01DX Z (ip), vehicle: saline 105 % of control | dose: 333.0 mg/kg/injection, schedule: Q01DX Z (ip), vehicle: saline 100 % of control | dose: 500.0 mg/kg/injection, schedule: Q01DX Z (ip), vehicle: saline 113 % of control

CC1CN=C(c2cccc(NC(=O)c3ccc(C(=O)Nc4cccc(C5=NCC(C)N5)c4)c(N)c3)c2)N1 (stereo not given)
inactive: dose: 1.25 mg/kg/injection, schedule: Q01DX Z (ip), vehicle: water 91 % of control | dose: 2.5 mg/kg/injection, schedule: Q01DX Z (ip), vehicle: water 89 % of control

CCOC(=O)c1cc(C)[nH]c1C
inactive: dose: 100.0 mg/kg/injection, schedule: Q01DX009 (ip), vehicle: gum acacia 100 % of control | dose: 200.0 mg/kg/injection, schedule: Q01DX009 (ip), vehicle: gum acacia 95 % of control | dose: 400.0 mg/kg/injection, schedule: Q01DX009 (ip), vehicle: gum acacia 105 % of control

Clc1cccc(N2CCN(c3c4c(nc5ccccc35)CCCCC4)CC2)c1
inactive: [12] 93 % of control | [13] 88 % of control | [14] 90 % of control

CCCCC#CCCl
inactive: [12] 102 % of control | [2] 94 % of control | [13] 103 % of control | [14] 111 % of control

Nc1nc(N)c2ncn(C3CC(O)C(CO)O3)c2n1 (stereo not given)
inactive: dose: 50.0 mg/kg/injection, schedule: Q01DX001 (ip), vehicle: saline 96 % of control | [12] 110 % of control | [13] 90 % of control | [14] 96 % of control

CNC(=O)Oc1ccc(NC(=O)OC)cc1
inactive: [6] 93 % of control | [7] 87 % of control

N#C/C(=C\C1CC(Br)CC(Br)C1O)C1CCC([N+](=O)[O-])CC1 (stereo not given)
inactive: dose: 100.0 mg/kg/injection, schedule: Q04DX002 (ip), vehicle: saline with Tween-80 90 % of control | dose: 200.0 mg/kg/injection, schedule: Q04DX002 (ip), vehicle: saline with Tween-80 90 % of control | dose: 400.0 mg/kg/injection, schedule: Q04DX002 (ip), vehicle: saline with Tween-80 93 % of control

O=C(NCc1ccccc1)C1C2C=CC(CC2)C1C(=O)NCc1ccccc1 (stereo not given)
inactive: [6] 96 % of control | [7] 96 % of control | [8] 87 % of control

CCc1c[n+]([O-])c(C)cc1C(=O)O
inactive: [9] 92 % of control | [15] 97 % of control | [10] 92 % of control | [16] 95 % of control | [11] 92 % of control | [17] 95 % of control

CNC(=O)Oc1cccc(NC(=O)OCC#CCCl)c1
inactive: dose: 100.0 mg/kg/injection, schedule: Q01DX001 (ip), vehicle: saline with Tween-80 92 % of control | dose: 200.0 mg/kg/injection, schedule: Q01DX001 (ip), vehicle: saline with Tween-80 90 % of control | dose: 400.0 mg/kg/injection, schedule: Q01DX001 (ip), vehicle: saline with Tween-80 90 % of control

Cn1cnccc1=O
inactive: dose: 50.0 mg/kg/injection, schedule: Q01DX009 (ip), vehicle: water 102 % of control | dose: 100.0 mg/kg/injection, schedule: Q01DX009 (ip), vehicle: water 104 % of control | dose: 100.0 mg/kg/injection, schedule: Q04DX003 (ip), vehicle: water 114 % of control | dose: 120.0 mg/kg/injection, schedule: Q04DX003 (ip), vehicle: water 98 % of control | dose: 200.0 mg/kg/injection, schedule: Q01DX009 (ip), vehicle: water 115 % of control | dose: 200.0 mg/kg/injection, schedule: Q04DX003 (ip), vehicle: water 100 % of control and 111 % of control | dose: 333.0 mg/kg/injection, schedule: Q04DX003 (ip), vehicle: water 95 % of control | dose: 400.0 mg/kg/injection, schedule: Q01DX009 (ip), vehicle: water 115 % of control | dose: 400.0 mg/kg/injection, schedule: Q04DX003 (ip), vehicle: water 106 % of control

COC(=O)CCC(NC(=O)CCCNC(=O)OCc1ccccc1)C(=O)OC (stereo not given)
inactive: dose: 100.0 mg/kg/injection, schedule: Q01DX001 (ip), vehicle: Klucel (hydroxypropylcellulose) (HPC) 96 % of control | dose: 100.0 mg/kg/injection, schedule: Q01DX001 (ip), vehicle: other 97 % of control | [9] 100 % of control | [15] 94 % of control | dose: 200.0 mg/kg/injection, schedule: Q01DX001 (ip), vehicle: Klucel (hydroxypropylcellulose) (HPC) 98 % of control | dose: 200.0 mg/kg/injection, schedule: Q01DX001 (ip), vehicle: other 100 % of control | [10] 97 % of control | [16] 89 % of control | dose: 400.0 mg/kg/injection, schedule: Q01DX001 (ip), vehicle: Klucel (hydroxypropylcellulose) (HPC) 89 % of control | dose: 400.0 mg/kg/injection, schedule: Q01DX001 (ip), vehicle: other 103 % of control | [11] 100 % of control | [17] 86 % of control

COc1ccc(C(O)(c2ccccc2)C(OC(=O)CCl)c2ccccc2)cc1 (stereo not given)
inactive: dose: 200.0 mg/kg/injection, schedule: Q01DX009 (ip), vehicle: saline with Tween-80 90 % of control
